What was measured:
Type in all cases: in vivo
Conditions in all cases: wettable powder applied 3 days after transplanting, judged after 25 days
Cyperus serotinus = test: Test Example 1: herbicidal effects, paddy-field pot test
Summary of the method: (§1)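 Greenhouse, flooded paddy soil; weeds from seed (top 1 cm), C. serotinus from germinated tubers, rice transplanted at 2.2-leaf stage. WP diluted in water, applied to pot day 3 post-transplant. Scored day 25 post-treatment, 0–5 inhibition scale.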

[1] = system: barnyardgrass (Echinochloa oryzicola Vasing.); test: as above
Summary of the method: as §1

Scirpus joncoides = test: as above
Summary of the method: as §1

[2] = system: annual broad-leaved weeds (Lindernia spp., Rotala indica); test: as above
Summary of the method: as §1

[3] = system: transplanted paddy-field rice; test: Test Example 1: crop injury against transplanted paddy-field rice
Summary of the method: as §1

Row | SMILES | Herbicidal effects Cyperus serotinus (Cyperus serotinus; chemical dosage 10 g/a) | Herbicidal effects Cyperus serotinus (Cyperus serotinus; chemical dosage 20 g/a) | Herbicidal effects Barnyard grass ([1]; chemical dosage 10 g/a) | Herbicidal effects Barnyard grass ([1]; chemical dosage 20 g/a) | Herbicidal effects Scirpus joncoides (Scirpus joncoides; chemical dosage 10 g/a) | Herbicidal effects Scirpus joncoides (Scirpus joncoides; chemical dosage 20 g/a) | Herbicidal effects Broad leaf ([2]; chemical dosage 10 g/a) | Herbicidal effects Broad leaf ([2]; chemical dosage 20 g/a) | Crop injury against transplanted rice ([3]; chemical dosage 10 g/a) | Crop injury against transplanted rice ([3]; chemical dosage 20 g/a) | Herbicidal effects Cyperus serotinus (Cyperus serotinus; chemical dosage 12.5 g/a) | Herbicidal effects Cyperus serotinus (Cyperus serotinus; chemical dosage 25 g/a) | Herbicidal effects Barnyard grass ([1]; chemical dosage 12.5 g/a) | Herbicidal effects Barnyard grass ([1]; chemical dosage 25 g/a) | Herbicidal effects Scirpus joncoides (Scirpus joncoides; chemical dosage 12.5 g/a) | Herbicidal effects Scirpus joncoides (Scirpus joncoides; chemical dosage 25 g/a) | Herbicidal effects Broad leaf ([2]; chemical dosage 12.5 g/a) | Herbicidal effects Broad leaf ([2]; chemical dosage 25 g/a) | Crop injury against transplanted rice ([3]; chemical dosage 12.5 g/a) | Crop injury against transplanted rice ([3]; chemical dosage 25 g/a)
1 | Cc1ccc(C2CC2)c(Oc2nnc(Cl)cc2O)c1C [Example 296] | 5 (Growth inhibition rate; 91 to 100%) | 5 (Growth inhibition rate; 91 to 100%) | 1 (Growth inhibition rate; 11 to 30%) | 2 (Growth inhibition rate; 31 to 50%) | 5 (Growth inhibition rate; 91 to 100%) | 5 (Growth inhibition rate; 91 to 100%) | 5 (Growth inhibition rate; 91 to 100%) | 5 (Growth inhibition rate; 91 to 100%) | 0 (Growth inhibition rate; 0 to 10%) | 0 (Growth inhibition rate; 0 to 10%) |  |  |  |  |  |  |  |  |  | 
2 | Cc1cc(C)c(C)c(Oc2nnc(Cl)cc2O)c1 [Example 286] |  |  |  |  |  |  |  |  |  |  | 5 (Growth inhibition rate; 91 to 100%) | 5 (Growth inhibition rate; 91 to 100%) | 0 (Growth inhibition rate; 0 to 10%) | 0 (Growth inhibition rate; 0 to 10%) | 5 (Growth inhibition rate; 91 to 100%) | 5 (Growth inhibition rate; 91 to 100%) | 5 (Growth inhibition rate; 91 to 100%) | 5 (Growth inhibition rate; 91 to 100%) | 0 (Growth inhibition rate; 0 to 10%) | 0 (Growth inhibition rate; 0 to 10%)
3 | Cc1cc(Oc2nnc(Cl)cc2O)cc(C(C)C)c1 [Example 282] |  |  |  |  |  |  |  |  |  |  | 4 (Growth inhibition rate; 71 to 90%) | 5 (Growth inhibition rate; 91 to 100%) | 0 (Growth inhibition rate; 0 to 10%) | 0 (Growth inhibition rate; 0 to 10%) | 3 (Growth inhibition rate; 51 to 70%) | 4 (Growth inhibition rate; 71 to 90%) | 5 (Growth inhibition rate; 91 to 100%) | 5 (Growth inhibition rate; 91 to 100%) | 0 (Growth inhibition rate; 0 to 10%) | 0 (Growth inhibition rate; 0 to 10%)
4 | CSc1c(C)cc(C)cc1Oc1nnc(Cl)cc1O [Example 289] |  |  |  |  |  |  |  |  |  |  | 4 (Growth inhibition rate; 71 to 90%) | 5 (Growth inhibition rate; 91 to 100%) | 0 (Growth inhibition rate; 0 to 10%) | 0 (Growth inhibition rate; 0 to 10%) | 4 (Growth inhibition rate; 71 to 90%) | 5 (Growth inhibition rate; 91 to 100%) | 4 (Growth inhibition rate; 71 to 90%) | 5 (Growth inhibition rate; 91 to 100%) | 0 (Growth inhibition rate; 0 to 10%) | 0 (Growth inhibition rate; 0 to 10%)
5 | Oc1cc(Cl)nnc1Oc1cccc2c1CCCC2 [Example 179] | 5 (Growth inhibition rate; 91 to 100%) | 5 (Growth inhibition rate; 91 to 100%) | 0 (Growth inhibition rate; 0 to 10%) | 1 (Growth inhibition rate; 11 to 30%) | 3 (Growth inhibition rate; 51 to 70%) | 4 (Growth inhibition rate; 71 to 90%) | 4 (Growth inhibition rate; 71 to 90%) | 4 (Growth inhibition rate; 71 to 90%) | 0 (Growth inhibition rate; 0 to 10%) | 0 (Growth inhibition rate; 0 to 10%) |  |  |  |  |  |  |  |  |  | 
6 | Cc1cccc(C(C)C)c1Oc1nnc(Cl)cc1O [Example 261] | 5 (Growth inhibition rate; 91 to 100%) | 5 (Growth inhibition rate; 91 to 100%) | 2 (Growth inhibition rate; 31 to 50%) | 2 (Growth inhibition rate; 31 to 50%) | 4 (Growth inhibition rate; 71 to 90%) | 5 (Growth inhibition rate; 91 to 100%) | 5 (Growth inhibition rate; 91 to 100%) | 5 (Growth inhibition rate; 91 to 100%) | 0 (Growth inhibition rate; 0 to 10%) | 0 (Growth inhibition rate; 0 to 10%) |  |  |  |  |  |  |  |  |  | 
7 | Cc1cc(C)c(C)c(Oc2nnc(Cl)cc2O)c1C [Example 320] |  |  |  |  |  |  |  |  |  |  | 5 (Growth inhibition rate; 91 to 100%) | 5 (Growth inhibition rate; 91 to 100%) | 1 (Growth inhibition rate; 11 to 30%) | 2 (Growth inhibition rate; 31 to 50%) | 5 (Growth inhibition rate; 91 to 100%) | 5 (Growth inhibition rate; 91 to 100%) | 5 (Growth inhibition rate; 91 to 100%) | 5 (Growth inhibition rate; 91 to 100%) | 0 (Growth inhibition rate; 0 to 10%) | 0 (Growth inhibition rate; 0 to 10%)
8 | Cc1ccc2c(c1Oc1nnc(Cl)cc1O)OCC2 [Example 308] | 5 (Growth inhibition rate; 91 to 100%) | 5 (Growth inhibition rate; 91 to 100%) | 2 (Growth inhibition rate; 31 to 50%) | 4 (Growth inhibition rate; 71 to 90%) | 4 (Growth inhibition rate; 71 to 90%) | 5 (Growth inhibition rate; 91 to 100%) | 5 (Growth inhibition rate; 91 to 100%) | 5 (Growth inhibition rate; 91 to 100%) | 0 (Growth inhibition rate; 0 to 10%) | 0 (Growth inhibition rate; 0 to 10%) |  |  |  |  |  |  |  |  |  | 
9 | O=[N+]([O-])c1ccc(S(=O)(=O)Oc2cc(Cl)nnc2Oc2ccccc2C2CC2)cc1 [Example 394] | 5 (Growth inhibition rate; 91 to 100%) | 5 (Growth inhibition rate; 91 to 100%) | 2 (Growth inhibition rate; 31 to 50%) | 3 (Growth inhibition rate; 51 to 70%) | 4 (Growth inhibition rate; 71 to 90%) | 5 (Growth inhibition rate; 91 to 100%) | 5 (Growth inhibition rate; 91 to 100%) | 5 (Growth inhibition rate; 91 to 100%) | 0 (Growth inhibition rate; 0 to 10%) | 0 (Growth inhibition rate; 0 to 10%) |  |  |  |  |  |  |  |  |  | 
